Laboratory results reported in patent publication US20230091047A1 (priority 2019, published 2023).
Read-outs that look alike come from different tables or passages of the source.

Legend:
in vitro = assay type: cell-based; settings: human, HepG2 or HepG2.117 cells, ATPlite, mean value; for CC50 at 4 days: 4-days incubation (values marked with *)
Summary of the method: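 Luminescent ATP quantitation served as the viability endpoint following a 3- or 4-day incubation with test compounds.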

[1] = test system: HBV (HepG2.117 cell line, inducibly HBV producing); test: Anti-HBV activity: intracellular HBV DNA by real-time PCR in HepG2.117 cells after 3 days of treatment; assay type: cell-based, hepatitis B virus
Summary of the method: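 First, HBV replication is induced in HepG2.117 cells by doxycycline absence. Next, serially diluted compound is added for 3 days. Finally, intracellular HBV DNA is quantified by HBV-specific real-time PCR.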

[2] = 3-days incubation (unmarked values)
[3] = Hepatitis B virus, HepG2.117, 72 h, HepG2.117 cells, 3 days of treatment, intracellular HBV DNA by real-time PCR; mean value; read-out: EC50 (μM, mean value)
[4] = 3-days incubation (not marked with *)
[5] = Hepatitis B virus, HepG2.117, 72 h, HepG2.117 cells, intracellular HBV DNA by real-time PCR, 3 days of treatment, mean value; read-out: EC50 (μM, mean value)

COc1ccc(CNc2nc3c(c(=O)n2C2CCCCC2)CCN(C(=O)c2ccc(Cl)c(Cl)c2)C3)cc1 [Compound C64, 3-cyclohexyl-7-(3,4-dichlorobenzoyl)-2-{[(4-methoxyphenyl)methyl]amino}-5,6,7,8-tetrahydropyrido[3,4-d]pyrimidin-4(3H)-one]
CC50 at 3 days (in vitro; [2]): > 50 µM | EC50 [1, 3]: 8.91 µM

CNC(=O)c1ccc(-n2c(NC(C)C)nc3c(c2=O)C[C@@H](C)N(C(=O)c2cc4c(C)cc(F)cc4[nH]2)C3)cc1 [Compound C564]
CC50 at 3 days (in vitro; [4]): 21.7 µM | EC50 [1, 5]: 0.02 µM

O=C(c1ccc(Cl)c(Cl)c1)N1CCc2c(nc(NCc3ccccc3)[nH]c2=O)C1 [Compound C21, 2-(benzylamino)-7-(3,4-dichlorobenzoyl)-5,6,7,8-tetrahydropyrido[3,4-d]pyrimidin-4(3H)-one]
CC50 at 4 days (in vitro): 24.7 µM | EC50 [1, 3]: 7.51 µM

CNC(=O)c1ccc(-n2c(N[C@H](C)c3ccc(C#N)cc3)nc3c(c2=O)C[C@@H](C)N(C(=O)c2ccc(Cl)c(Cl)c2)C3)cc1 (single isomer, unassigned) [Compound C441a]
CC50 at 3 days (in vitro; [4]): > 50 µM | EC50 [1, 5]: 0.22 µM

COC(=O)c1ccc(-n2c(NC(C)C)nc3c(c2=O)C[C@@H](C)N(C(=O)c2ccc(Cl)c(Cl)c2)C3)cn1 [Compound C226]
CC50 at 3 days (in vitro; [2]): > 50 µM | EC50 [1, 3]: 2.3 µM

CNC(=O)c1ccc(-n2c(N[C@H](C)CO)nc3c(c2=O)C[C@@H](C)N(C(=O)c2ccc(Cl)c(Cl)c2)C3)cc1 [Compound C330, 4-[(6R)-7-(3,4-dichlorobenzoyl)-2-{[(2R)-1-hydroxypropan-2-yl]amino}-6-methyl-4-oxo-5,6,7,8-tetrahydropyrido[3,4-d]pyrimidin-3(4H)-yl]-N-methylbenzamide]
CC50 at 3 days (in vitro; [2]): > 50 µM | EC50 [1, 3]: 0.9 µM

CNC(=O)c1ccc(-n2c(N[C@@H](c3ccccc3)C3CC3)nc3c(c2=O)C[C@@H](C)N(C(=O)c2ccc(Cl)c(Cl)c2)C3)cc1 (single isomer, unassigned) [Compound C342, 4-[(6R)-2-{[(*R)-cycopropyl(phenyl)methyl]amino}-7-(3,4-dichlorobenzoyl)-6-methyl-4-oxo-5,6,7,8-tetrahydropyrido[3,4-d]pyrimidin-3(4H)-yl]-N-methylbenzamide]
CC50 at 3 days (in vitro; [2]): 16 µM | EC50 [1, 3]: 0.37 µM

CNC(=O)c1ccc(-n2c(NCc3nncn3-c3ccccc3)nc3c(c2=O)C[C@@H](C)N(C(=O)c2ccc(Cl)c(Cl)c2)C3)cc1 [Compound C542]
CC50 at 3 days (in vitro; [4]): > 50 µM | EC50 [1, 5]: 12.9 µM

CNC(=O)c1ccc(-n2c(NC(C)C)nc3c(c2=O)C[C@@H](C)N(C(=O)c2cc4cc(Cl)ccc4s2)C3)cc1 [Compound C579]
CC50 at 3 days (in vitro; [4]): > 50 µM | EC50 [1, 5]: 0.12 µM

COc1ccc(CNc2nc3c(c(=O)[nH]2)CCN(C(=O)c2ccc(Br)c(Br)c2)C3)cc1 [Compound C80, 7-(3,4-dibromobenzoyl)-2-{[(4-methoxyphenyl)methyl]amino}-5,6,7,8-tetrahydropyrido[3,4-d]pyrimidin-4(3H)-one]
CC50 at 3 days (in vitro; [2]): > 50 µM | EC50 [1, 3]: 2.02 µM

CNC(=O)c1cc(-n2c(NC(C)c3ccc(OC(F)(F)F)cc3)nc3c(c2=O)C[C@@H](C)N(C(=O)c2ccc(Cl)c(Cl)c2)C3)[nH]n1 (stereo partly shown) [Compound C531]
CC50 at 3 days (in vitro; [4]): 26.3 µM | EC50 [1, 5]: 0.21 µM

CC(C)Nc1nc2c(c(=O)n1-c1ccc3c(c1)CC(=O)N3)C[C@@H](C)N(C(=O)c1ccc(Cl)c(Cl)c1)C2 [Compound C206, (6R)-7-(3,4-dichlorobenzoyl)-6-methyl-3-(2-oxo-2,3-dihydro-1H-indol-5-yl)-2-[(propan-2-yl)amino]-5,6,7,8-tetrahydropyrido[3,4-d]pyrimidin-4(3H)-one]
CC50 at 3 days (in vitro; [2]): 48.9 µM | EC50 [1, 3]: 0.16 µM

COc1ccccc1-n1c(NCc2ccc(C(F)(F)F)cc2)nc2c(c1=O)CCN(C(=O)c1ccc(Cl)c(Cl)c1)C2 [Compound C23, 7-(3,4-dichlorobenzoyl)-3-(2-methoxyphenyl)-2-({[4-(trifluoromethyl)phenyl]methyl}amino)-5,6,7,8-tetrahydropyrido[3,4-d]pyrimidin-4(3H)-one]
CC50 at 4 days (in vitro): > 50 µM | EC50 [1, 3]: 2.56 µM

COc1ccc(C(CCO)Nc2nc3c(c(=O)[nH]2)CCN(C(=O)c2ccc(Cl)c(Cl)c2)C3)cc1 (stereo not shown) [Compound C92, 7-(3,4-dichlorobenzoyl)-2-{[3-hydroxy-1-(4-methoxyphenyl)propyl]amino}-5,6,7,8-tetrahydropyrido[3,4-d]pyrimidin-4(3H)-one]
CC50 at 3 days (in vitro; [2]): 24.8 µM | EC50 [1, 3]: 7.09 µM

COc1ccc(CNc2nc3c(c(=O)n2-c2ccc(S(C)(=O)=O)cc2)C[C@H](C)N(C(=O)c2ccc(Cl)c(Cl)c2)C3)cc1 [Compound C140, (6S)-7-(3,4-dichlorobenzoyl)-3-[4-(methanesulfonyl)phenyl]-2-{[(4-methoxyphenyl)methyl]amino}-6-methyl-5,6,7,8-tetrahydropyrido[3,4-d]pyrimidin-4(3H)-one]
CC50 at 3 days (in vitro; [2]): > 50 µM | EC50 [1, 3]: 1.88 µM

CNC(=O)c1ccc(-n2c(N[C@H](C)c3ccc(OC(F)F)cc3)nc3c(c2=O)C[C@@H](C)N(C(=O)c2ccc(Cl)c(Cl)c2)C3)cc1 [Compound C411a]
CC50 at 3 days (in vitro; [4]): 47.4 µM | EC50 ([1]; HepG2.117 cells, intracellular HBV DNA by real-time PCR, 3 days of treatment, mean value; read-out: EC50 (μM, mean value)): 1.02 µM

CC[C@@H]1Cc2c(nc(NC(C)C)n(-c3ccc(S(C)(=O)=O)cc3)c2=O)CN1C(=O)c1ccc(Cl)c(Cl)c1 (single isomer, unassigned) [Compound C158A, (6*R)-7-(3,4-dichlorobenzoyl)-6-ethyl-3-[4-(methanesulfonyl)phenyl]-2-[(propan-2-yl)amino]-5,6,7,8-tetrahydropyrido[3,4-d]pyrimidin-4(3H)-one]
CC50 at 3 days (in vitro; [2]): > 50 µM | EC50 [1, 3]: 0.91 µM

CNC(=O)c1ccc(-n2c(N[C@@H](C)C3CC3)nc3c(c2=O)C[C@@H](C)N(C(=O)c2ccc(Cl)c(Cl)c2)C3)c(Cl)c1 (single isomer, unassigned) [Compound C387a]
CC50 at 3 days (in vitro; [4]): > 50 µM | EC50 [1, 5]: 0.05 µM

CC(C)Nc1nc2c(c(=O)n1-c1ccc(S(C)(=O)=O)cc1)CCN(C(=O)c1ccc3cncn3c1)C2 [Compound C356]
CC50 at 3 days (in vitro; [2]): > 50 µM | EC50 [1, 3]: > 50 µM

CNC(=O)c1ccc(-n2c(NC(C)C)nc3c(c2=O)C[C@@H](C)N(C(=O)c2cc4c(Br)c(F)ccc4[nH]2)C3)cc1 [Compound C572]
CC50 at 3 days (in vitro; [4]): 14.6 µM | EC50 [1, 5]: 0.01 µM

CNC(=O)c1ccc(-n2c(N[C@@H](C)c3ccc4[nH]ccc4c3)nc3c(c2=O)C[C@@H](C)N(C(=O)c2ccc(Cl)c(Cl)c2)C3)cc1 (single isomer, unassigned) [Compound C449b]
CC50 at 3 days (in vitro; [4]): 46.4 µM | EC50 [1, 5]: 0.2 µM

CNC(=O)c1ccc(-n2c(O[C@@H](C)C(C)C)nc3c(c2=O)C[C@@H](C)N(C(=O)c2ccc(Cl)c(Cl)c2)C3)cc1 [Compound C446]
CC50 at 3 days (in vitro; [4]): 27.6 µM | EC50 [1, 5]: 0.03 µM

CNC(=O)c1ccc(-n2c(N[C@H](C)CCO)nc3c(c2=O)C[C@@H](C)N(C(=O)c2ccc(Cl)c(Cl)c2)C3)cc1 [Compound C326, 4-[(6R)-7-(3,4-dichlorobenzoyl)-2-{[(2R)-4-hydroxybutan-2-yl]amino}-6-methyl-4-oxo-5,6,7,8-tetrahydropyrido[3,4-d]pyrimidin-3(4H)-yl]-N-methylbenzamide]
CC50 at 3 days (in vitro; [2]): > 50 µM | EC50 [1, 3]: 0.46 µM

CNC(=O)c1ccc(-n2c(N3CC4CC3C4)nc3c(c2=O)C[C@@H](C)N(C(=O)c2ccc(Cl)c(Cl)c2)C3)cc1 [Compound C408]
CC50 at 3 days (in vitro; [4]): > 50 µM | EC50 [1, 5]: 0.05 µM

COc1ccc(CNc2nc3c(c(=O)n2C)CCN(C(=O)c2ccc(Cl)c(Cl)c2)C3)cc1 [Compound C52, 7-(3,4-dichlorobenzoyl)-2-{[(4-methoxyphenyl)methyl]amino}-3-methyl-5,6,7,8-tetrahydropyrido[3,4-d]pyrimidin-4(3H)-one]
CC50 at 3 days (in vitro; [2]): > 50 µM | EC50 [1, 3]: 5.1 µM

CNC(=O)c1ccc(-n2c(N[C@H]3C[C@H]4CC[C@]3(C)C4(C)C)nc3c(c2=O)C[C@@H](C)N(C(=O)c2ccc(Cl)c(Cl)c2)C3)cc1 [Compound C621]
CC50 at 3 days (in vitro; [4]): 5.99 µM | EC50 [1, 5]: > 2.5 µM

CNC(=O)c1ccc(-n2c(NC(C)C)nc3c(c2=O)C[C@@H](C)N(C(=O)c2cc4c(Cl)c(Cl)ccc4[nH]2)C3)cc1 [Compound C566]
CC50 at 3 days (in vitro; [4]): 6.8 µM | EC50 [1, 5]: 0.03 µM

CNC(=O)c1ccc(-n2c(NC(C)C)nc3c(c2=O)C[C@@H](C)N(C(=O)c2cc(F)c(Br)c(F)c2)C3)cc1 [Compound C519]
CC50 at 3 days (in vitro; [4]): > 50 µM | EC50 [1, 5]: 0.02 µM

CC(C)Nc1nc2c(c(=O)n1-c1ccc(C(=O)N3CCOCC3)cc1)C[C@@H](C)N(C(=O)c1ccc(Cl)c(C(F)F)c1)C2 [Compound C682]
CC50 at 3 days (in vitro; [4]): > 50 µM | EC50 [1, 5]: 0.12 µM

COc1ccc(CNc2nc3c(c(=O)n2CC2CC2)CCN(C(=O)c2ccc(Cl)c(Cl)c2)C3)cc1 [Compound C59, 3-(cyclopropylmethyl)-7-(3,4-dichlorobenzoyl)-2-{[(4-methoxyphenyl)methyl]amino}-5,6,7,8-tetrahydropyrido[3,4-d]pyrimidin-4(3H)-one]
CC50 at 3 days (in vitro; [2]): > 50 µM | EC50 [1, 3]: 2.53 µM

CNC(=O)c1ccc(-n2c(NCc3c[nH]c4ccccc34)nc3c(c2=O)C[C@@H](C)N(C(=O)c2ccc(Cl)c(Cl)c2)C3)cc1 [Compound C277, 4-[(6R)-7-(3,4-dichlorobenzoyl)-2-{[(1H-indol-3-yl)methyl]amino}-6-methyl-4-oxo-5,6,7,8-tetrahydropyrido[3,4-d]pyrimidin-3(4H)-yl]-N-methylbenzamide]
CC50 at 3 days (in vitro; [2]): 40.1 µM | EC50 [1, 3]: 1.27 µM

CNC(=O)c1ccc(-n2c(NCC(C)c3nncn3C)nc3c(c2=O)C[C@@H](C)N(C(=O)c2ccc(Cl)c(Cl)c2)C3)cc1 (stereo partly shown) [Compound C551]
CC50 at 3 days (in vitro; [4]): > 50 µM | EC50 [1, 5]: > 25 µM
